Reference: US20070098735A1, “Methods for the Elimination of Pathogens and Other Particulate Agents” (priority 2005, published 2007)

Assays:
[1] = system: lipid raft (LR) microdomain of the macrophage plasma membrane; assay: Binding of exogenous HRP-labeled HSP70 to purified lipid raft fractions; set-up: species or system murine; details: HRP-labeled HSP70 100 μg/ml; with ganglioside GM1; Brij98 or Triton X-100
Procedure: Purification of lipid rafts. Lipid rafts were purified as DRMs (detergent resistant membrane) using non-ionic detergents following sucrose gradient centrifugation. […] After incubation, cells were washed 3× with PBS and lysed with 2 ml MES (4-morpholinoethanesulfonic acid) buffered saline (MBS; 150 mM NaCl, 20 mM MES, pH 6.5, […] and 5 mM iodoacetamide) containing 0.5% Triton X-100 or 1% for 30 minutes on ice or 7 minutes at 37° C. respectively. The cells were mixed with an equal volume of 90% sucrose in MEB buffer (150 mM NaCl, 20 mM MES [pH 6.5]) and placed at the bottom of the centrifuge tube. […] Fractions of 1 ml each were collected from the bottom of tube and each fraction was analyzed by SDS-PAGE and immunoblotting.
Briefly, RAW264.7 macrophages were treated with exogenous HRP-labeled HSP70 (100 μg/ml) or were left untreated for 60 minutes and washed with PBS three times to remove free HSPs. […] These fractions obtained (light: LR and heavy: non-LR) were then analyzed using immunoblotting to detect HRP activity of HSP70-HRP complexes or tested for the presence of an LR-associated ganglioside GM1 by using HRP-cholera toxin B. Similarly, these fractions were tested for the amount of cholesterol using (Biovision Research Products, CA). […]

[2] = system: Murine macrophage lines (RAW264.7, J774.A1 or RAW264NO-); assay: Phagocytosis assay in vitro (uptake of Alexa Fluor 488-labeled particles); assay type: cell-based
Method in brief: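 Macrophages in serum-free EMEM took up Alexa Fluor 488 beads, yeast or E. coli (40 particles/cell) for 60 min at 37 °C with or without HSPs, LPS or control proteins. Trypan blue (0.8 mg/ml, 60 s) quenched external fluorescence, and intracellular signal was read as relative mean fluorescence intensity. Data are from 3 experiments, 3 wells/group, compared with medium alone by Student's t test.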

[3] = system: full thickness wounds of naïve mice; assay: Adoptive transfer of pre-treated RAW 264.7 macrophages into wounded mice, wound closure; assay type: in vivo
Procedure: Macrophage Cell Culture, Pre-treatment, and Adoptive Transfer. RAW 264.7 macrophages (ATCC) were grown as described by ATCC. Cells were harvested by gently scraping them from the cell culture flasks, centrifuged and washed once in cultured grade PBS. […] They were then washed 3 times with PBS, and were re-suspended to achieve a concentration of 400,000, 40,000, or 4,000 cells per 0.5 ml PBS. Adoptive transfer of these cells was performed by subcutaneous injections in the nape of the neck using a 25-gauge needle in mice that were wounded as previously described. Adoptive transfers were given on days 0, 2 and 4 post-operatively.
Macrophages were treated in vitro with either HSPs or non-HSP controls and transferred into naïve wounded mice (as described in Materials and Methods) to test if HSPs could in part mediate some of their activity through macrophages. […] Data is plotted as average percent wound closure ±SEM on day 2. *P values were obtained using the Student's t-test by comparing HSP treatment to all of the non-HSP control treatments. The least significant P value was reported.
Titratability of adoptive transfer was examined by transferring 4,000, 40,000 or 400,000 macrophages pre-treated as described in Materials and Methods.

For “HSP70: heat shock protein purified from murine livers, prepared as a complex with endogenous peptide”, the “localisation of exogenously administered HSP70” value [1] was “co-localized on the LR-microdomain of the macrophage plasma membrane”, the “rank as stimulator of phagocytosis among the agents tested” value ([2]; HSP70 100 μg/ml vs TLR7-ligands 1 mg/ml) was “most potent stimulator of phagocytosis” and the “uptake of microbial or non-microbial materials as compared to control proteins or buffer” value ([2]; HSPs 100 μg/ml, P<0.01 vs medium alone) was “increase in uptake”. For the same substance, the increase in phagocytosis ([2]; RAW264.7, labeled S. cerevisiae, HSP70 100 μg/ml, 60 minutes at 37° C.) was 4-6 times the basal rate, the “uptake of yeast by macrophages pre-treated with HSP and washed” value ([2]; compared with HSP and yeast administered simultaneously) was “enhanced the uptake of yeast to the same extent” and the “doses unable to stimulate uptake” value ([2]; dose range 10-100 μg/ml) was “less than 20 μg/ml”. For the same substance, the “quantity of phagocytosis at higher doses” value ([2]; doses up to 200 μg/ml) was “did not result in any further increase in the quantity of phagocytosis”, the “dose at which the peak effect occurred” value ([2]; plateau through 100 μg/ml) was 40 µg/mL and the “ability to enhance phagocytosis” value ([2]; serum-free conditions, 1 hour, HSP70 100 μg/ml, LPS 25 ng-1 μg/ml, heating 100° C. for 20 minutes) was “able to enhance phagocytosis equally whether in the presence or absence of serum”. For the same substance, the “time for antigen uptake to reach a plateau” value ([2]; time-titration 10-90 minutes) was no more than 45 min, the “titratability of adoptive transfer by cell number” value ([3]; 4,000, 40,000 or 400,000 pre-treated macrophages) was “Increasing the number of HSP pretreated cells increases the percentage of wound closure” and the “early wound closure after adoptive transfer of pre-treated macrophages” value ([3]; 400,000 macrophages pre-treated at 30 μg/dose) was “significantly accelerated early wound closure”. The “wound healing on day 2 after adoptive transfer of pre-treated macrophages” value ([3]; 400,000 macrophages pre-treated at 30 μg/dose, day 2 post surgery) was 62%.
